One test deals with PmHS2. The test is described as follows: Small-scale PmHS2 donor substrate test by TLC. Type of test: biochemical, Pasteurella multocida. The following applies: GlcAβ2AAMe 10 mM, donor 15 mM, MgCl2 10 mM, PmHS2 0.5 mg/mL, pH 7.5, 37° C., 12 hr. As to the method: Prior to applying the one-pot three-enzyme system shown in FIG. 16 to the preparative-scale synthesis of the disaccharides, UDP-GlcNAc and derivatives F17-1-F17-12 were tested as donor substrates for PmHS2 in small-scale reaction containing Tris-HCl buffer (100 mM, pH 7.5), GlcAβ2AAMe (10 mM), UDP-GlcNAc or a derivative (15 mM), MgCl2 (10 mM), and PmHS2 (0.5 mg/mL). The reactions were carried out at 37° C. for 12 hr and analyzed by thin layer chromatography (TLC).

For test [1], the system named is T1, MBP-KfiA-His6 (Escherichia coli).
T1 construct: made in house; host or cells: E. coli BL21(DE3) co-expressing chaperone plasmid pGro7
The test is described as follows: GlcNAcT donor substrate specificity of MBP-KfiA-His6 (Example 12). The format is biochemical, E. coli. The following applies: acceptor GlcAβ2AA 1 mM, UDP-sugar 1 mM, MnCl2 10 mM, KfiA 2.8 μg μl^−1, 24 h, 37° C. On the procedure:
(§1) PmHS2, KfiA, and related fusion proteins were expressed, purified, and characterized as described in Example 1. Reactions with UDP-sugars were carried out in duplicate at 37° C. in MES (100 mM, pH 6.5) containing UDP-GlcNAc or one of its derivatives (1 mM), GlcAβ2AA (1 mM), MnCl2 (10 mM) and KfiA (2.8 μg μl^−1) or PmHS2 (1.1 μg μl^−1) for 24 h. The reaction mixtures were stopped by adding ice-cold 10% (v/v) acetonitrile to make 100-fold dilutions and the mixtures were analyzed by HPLC as described for the pH profile.
(§2) Substrate specificity of the GlcNAcT activities of MBP-KfiA-his6 and his6-PmHS2. […] The reactions were easily analyzed by high performance liquid chromatography (HPLC) equipped with a fluorescence detector using an excitation wavelength of 315 nm and an emission wavelength of 400 nm to determine the ratio of the fluorescent disaccharide product formed and the fluorescent GlcAβ2AA acceptor.

A further test has as its system His6-PmHS2. The test is described as follows: GlcNAcT donor substrate specificity of His6-PmHS2 (Example 12). The format is biochemical, Pasteurella multocida. The following applies: acceptor GlcAβ2AA 1 mM, UDP-sugar 1 mM, MnCl2 10 mM, PmHS2 1.1 μg μl^−1, 24 h, 37° C. On the procedure: as §1, §2

Each structure is given as a SMILES string.

Regarding `[N-]=[N+]=N[C@H]1[C@@H](OP(=O)(O)OP(=O)(O)OC[C@H]2O[C@@H](n3ccc(=O)[nH]c3=O)[C@H](O)[C@@H]2O)O[C@H](CO)[C@@H](O)[C@@H]1O` [Compound F17-6, Uridine 5′-diphospho-2-azido-2-deoxy-α-D-glucopyranoside], the “donor substrate for PmHS2” value with PmHS2 is listed as “did not serve as donor substrates”. In test [1], the “donor substrate for MBP-KfiA-His6” value is reported as “not acceptable donor substrates”. Further, the “donor substrate for the α1-4GlcNAcT activity of His6-PmHS2” value (“donor substrate … of His6-PmHS2” below) in the test on His6-PmHS2 is “not acceptable donor substrates”.

For `NC1C(OP(=O)(O)OP(=O)(O)OCC2OC(n3ccc(=O)[nH]c3=O)C(O)C2O)OC(CO)C(O)C1O` [Compound F17-5, Uridine 5′-diphospho-2-amino-2-deoxy-α-D-glucopyranoside], in the test on PmHS2, the “donor substrate for PmHS2” value was “did not serve as donor substrates”. The “donor substrate for MBP-KfiA-His6” value in test [1] is recorded as “not acceptable donor substrates”. The “donor substrate … of His6-PmHS2” value with His6-PmHS2 was “not acceptable donor substrates”.

For `CC(=O)N[C@H]1[C@@H](OP(=O)(O)OP(=O)(O)OC[C@H]2O[C@@H](n3ccc(=O)[nH]c3=O)[C@H](O)[C@@H]2O)O[C@H](CNC(=O)CO)[C@@H](O)[C@@H]1O` [Compound F17-9, Uridine 5′-diphospho-2-acetamido-6-hydroxyacetamido-2,6-dideoxy-α-D-glucopyranoside], the “donor substrate for PmHS2” value in the test on PmHS2 is recorded as “tolerable donor substrates”. Moreover, the “donor substrate for MBP-KfiA-His6” value in test [1] was “not for MBPKfiA-His6”. Besides, the “donor substrate … of His6-PmHS2” value in the test with His6-PmHS2 was “tolerable donor substrates for His6-PmHS2”.

As to `CC(=O)NC1C(OP(=O)(O)OP(=O)(O)OCC2OC(n3ccc(=O)[nH]c3=O)C(O)C2O)OC(CNC(=O)CN=[N+]=[N-])C(O)C1O` [Compound F17-11, Uridine 5′-diphospho-2-acetamido-6-azidoacetamido-2,6-dideoxy-α-D-glucopyranoside], the “donor substrate for PmHS2” value in the test on PmHS2 is recorded as “did not serve as donor substrates”. In test [1], the “donor substrate for MBP-KfiA-His6” value is reported as “not for MBPKfiA-His6”. Moreover, in the test with His6-PmHS2, the “donor substrate … of His6-PmHS2” value is recorded as “tolerable donor substrates for His6-PmHS2”.

The values above are taken from patent US10160986B2, “Chemoenzymatic synthesis of heparin and heparan sulfate analogs” (The Regents of the University of California, priority 2011, dated 2018).
